The text below walks through data of paper PMC12655172, “Borylated 5-Membered Ring Iminosugars: Synthesis and Biological Evaluation for Glycosidase Inhibition and Anticancer Properties for Application in Boron Neutron Capture Therapy (BNCT)—Part 2” (Pharmaceuticals, 2025).

Data set [1] has as its target T1, α-D-glucosidase (yeast) (Saccharomyces cerevisiae, UniProt P53341).
T1 construct: purchased Sigma-Aldrich
The data set is described as follows: Glycosidase inhibition (Table 3 panel). The class given is biochemical. The note with it: 1 mg/mL aqueous solution, run in water; for inhibition at 1000 µg/mL (stock): read-out: Percentage inhibition α-D-Glucosidase Yeast. As to the method: All enzymes and para-nitrophenyl substrates were purchased from Sigma. Enzymes were assayed at 27 °C in citric acid (0.1 M)/disodium hydrogen phosphate (0.2 M) buffers at the optimum pH for the enzyme. The incubation mixture consisted of […] of 1 mg/mL aqueous solution of extract and […] of the appropriate 5 μM para-nitrophenyl substrate made up in buffer at the optimum pH for the enzyme. […] Assays were carried out in triplicate, and the values given are means of the three replicates per assay. All reactions were run in water.

Data set [2] can be described thus: Sample appearance on sample preparation in water. The note with it: 1 mL of water was added to 1 mg solid. Format: physicochemical.
Data set [3] relates to β-D-glucosidase (almond). The data set is described as follows: Glycosidase inhibition (Table 3 panel). The class given is biochemical. To be noted: 1 mg/mL aqueous solution; run in water. As to the method: (§1) All enzymes and para-nitrophenyl substrates were purchased from Sigma. Enzymes were assayed at 27 °C in citric acid (0.1 M)/disodium hydrogen phosphate (0.2 M) buffers at the optimum pH for the enzyme. The incubation mixture consisted of […] of 1 mg/mL aqueous solution of extract and […] of the appropriate […] para-nitrophenyl substrate made up in buffer at the optimum pH for the enzyme. The reactions were stopped by addition of […] 0.4 M glycine (pH 10.4) during the exponential phase of the reaction, which had been determined at the beginning using uninhibited assays in which water replaced the inhibitor. Final absorbances were read at 405 nm using a Versamax microplate reader (Molecular Devices, Wokingham, UK). Assays were carried out in triplicate, and the values given are means of the three replicates per assay. All reactions were run in water.

For data set [4], the system named is β-D-glucuronidase (bovine liver). The data set is described as follows: Glycosidase inhibition (Table 3 panel). Format: biochemical. To be noted: 1 mg/mL aqueous solution; run in water. As to the method: as §1
In data set [5] the test system is MCF10A (non-tumour derived normal breast cell line). The data set is described as follows: Cancer screening, MTT growth inhibition. To be noted: Homo sapiens, MCF-10A, 72 h; for inhibition at 25 µM: 25 µM of drug, read-out: DOSE SCREEN percentage (%) cell growth inhibition MCF10A Breast (normal); for GI50: read-out: DOSE RESPONSE GI50 MCF10A Breast (normal). Format: cell-based.

The subject of data set [6] is A2780 (ovarian carcinoma). The data set is described as follows: Cancer screening, MTT growth inhibition. The class given is cell-based. The note with it: Homo sapiens; for inhibition at 25 µM: A2780, 25 µM of drug, 72 h, read-out: DOSE SCREEN percentage (%) cell growth inhibition A2780 Ovarian; for GI50: A2780, 72 h, read-out: DOSE RESPONSE GI50 A2780 Ovarian. As to the method: (§2) For Table 4, all test agents were prepared as stock solutions ([…]) in dimethyl sulfoxide (DMSO) and stored at −20 °C. Cell lines used in the study included HT29 (colorectal carcinoma), A2780 (ovarian carcinoma), H460 (lung carcinoma), A431 (skin carcinoma), MiaPaCa-2 (pancreatic carcinoma), and SMA560 (spontaneous murine astrocytoma), together with MCF10A (non-tumour derived normal breast cell line). Cell line sources: the HT29, H460, and MiaPaCa-2, together with MCF10A were purchased from ATCC. The A2780 and A431 were purchased from the European Collection of Cell Culture (ECACC). All cell lines were incubated in a humidified atmosphere 5% CO2 at 37 °C. The cancer cell lines were maintained in Dulbecco’s modified Eagle’s medium (DMEM; Sigma, Truganina, Australia) supplemented with foetal bovine serum (10%), sodium pyruvate ([…]), penicillin (100 IUmL^−1), streptomycin (100 µg mL^−1), and L-glutamine ([…]).
(§3) Growth inhibition was determined by plating cells in duplicate in medium (100 µL) at a density of 2500–4000 cells per well in 96-well plates. On day 0 (24 h after plating), when the cells are in logarithmic growth, medium (100 µL) with or without the test agent was added to each well. […] Each data point is the mean ± the standard error of the mean (SEM) calculated from three replicates which were performed on separate occasions and separate cell line passages.

Data set [7] concerns MIA-Pa-Ca2 (pancreatic carcinoma). The data set is described as follows: Cancer screening, MTT growth inhibition. The class given is cell-based. The note with it: Homo sapiens; for inhibition at 25 µM: MIA PaCa-2, 25 µM of drug, 72 h, read-out: DOSE SCREEN percentage (%) cell growth inhibition MIA-Pa-Ca2 Pancreatic; for GI50: MIA PaCa-2, 72 h, read-out: DOSE RESPONSE GI50 MIA-Pa-Ca2 Pancreatic. As to the method:
as §2, §3

Data set [8] has as its system H460 (lung carcinoma). The data set is described as follows: Cancer screening, MTT growth inhibition. Format: cell-based. To be noted: Homo sapiens; for inhibition at 25 µM: NCI-H460, 25 µM of drug, 72 h, read-out: DOSE SCREEN percentage (%) cell growth inhibition H460 Lung; for GI50: NCI-H460, 72 h, read-out: DOSE RESPONSE GI50 H460 Lung. As for the experimental part: as §2, §3

The subject of data set [9] is A431 (skin carcinoma). The data set is described as follows: Cancer screening, MTT growth inhibition. Format: cell-based. To be noted: Homo sapiens; for inhibition at 25 µM: A-431, 25 µM of drug, 72 h, read-out: DOSE SCREEN percentage (%) cell growth inhibition A431 Skin; for GI50: A-431, 72 h, read-out: DOSE RESPONSE GI50 A431 Skin. As for the experimental part: as §2, §3

Data set [10] deals with HT29 (colorectal carcinoma). The data set is described as follows: Cancer screening, MTT growth inhibition. Format: cell-based. The note with it: Homo sapiens; for inhibition at 25 µM: HT-29, 25 µM of drug, 72 h, read-out: DOSE SCREEN percentage (%) cell growth inhibition HT29 Colon; for GI50: HT-29, 72 h, read-out: DOSE RESPONSE GI50 HT29 Colon. As for the experimental part: as §2, §3

Data set [11] deals with β-D-mannosidase (snail). The data set is described as follows: Glycosidase inhibition (Table 2 panel). Format: biochemical. The source says: (§4) The enzymes α-D-glucosidase (yeast), β-D-glucosidases (almond, bovine liver), α-D-galactosidase (coffee beans), β-D-galactosidase (bovine liver), α-D-mannosidase (Jack bean), β-D-mannosidase (snail), α-L-rhamnosidase (P. decumbens), α-L-fucosidase (bovine kidney), trehalase (porcine kidney), β-D-glucuronidases (E. coli, bovine liver), amyloglucosidase (A. niger), para-nitrophenyl glycosides, and various disaccharides were purchased from Sigma-Aldrich Co (St. Louis, MO, USA).
(§5) Brush border membranes were prepared from the rat small intestine according to the method of Kessler et al., and were assayed at pH 6.8 for rat intestinal maltase using maltose. For rat intestinal maltase, porcine kidney trehalase, and A. niger amyloglucosidase activities, the reaction mixture contained maltose ([…]) and the appropriate amount of enzyme, and the incubations were performed for 10–30 min at 37 °C. The reaction was stopped by heating at 100 °C for 3 min. After centrifugation (600 g; 10 min), the resulting reaction mixture was added to the Glucose CII-test Wako (Wako Pure Chemical Ind., Osaka, Japan). The absorbance at 505 nm was measured to determine the amount of the released D-glucose. Other glycosidase activities were determined using an appropriate para-nitrophenyl glycoside as substrate at the optimum pH of each enzyme. The reaction mixture contained the substrate ([…]) and the appropriate amount of enzyme. The reaction was stopped by the addition of Na2CO3 ([…]). The released para-nitrophenol was measured spectrometrically at 400 nm. All reactions were run in […].

Data set [12] deals with T2, α-D-galactosidase (coffee beans).
T2 construct: purchased Sigma-Aldrich; host or cells: coffee beans
The data set is described as follows: Glycosidase inhibition (Table 2 panel). Format: biochemical.
Source text: as §4, §5

For data set [13], the system named is β-D-glucuronidase (bovine liver). The data set is described as follows: Glycosidase inhibition (Table 2 panel). Format: biochemical.
Source text: as §4, §5

T1 sequence (P53341 whole entry): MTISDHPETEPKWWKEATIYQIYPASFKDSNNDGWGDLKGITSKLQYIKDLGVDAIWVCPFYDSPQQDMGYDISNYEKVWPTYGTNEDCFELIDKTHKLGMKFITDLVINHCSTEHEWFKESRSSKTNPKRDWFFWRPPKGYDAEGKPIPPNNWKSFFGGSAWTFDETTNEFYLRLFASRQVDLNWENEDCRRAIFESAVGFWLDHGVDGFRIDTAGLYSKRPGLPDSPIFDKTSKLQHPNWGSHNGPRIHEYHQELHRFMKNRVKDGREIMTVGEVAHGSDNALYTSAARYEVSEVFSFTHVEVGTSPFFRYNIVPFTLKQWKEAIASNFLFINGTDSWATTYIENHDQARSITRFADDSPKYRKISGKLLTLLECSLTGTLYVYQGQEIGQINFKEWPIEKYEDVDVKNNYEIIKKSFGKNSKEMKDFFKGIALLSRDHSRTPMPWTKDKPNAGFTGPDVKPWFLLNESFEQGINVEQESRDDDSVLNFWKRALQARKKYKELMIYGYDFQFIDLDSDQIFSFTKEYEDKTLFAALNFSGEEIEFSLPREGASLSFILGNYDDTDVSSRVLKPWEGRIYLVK

Turning to `OC[C@H](O)[C@@H]1[C@H](O)[C@H](O)CN1Cc1cccc(B(O)O)c1` [meta 4, N-(3-Methylphenylboronic acid)-1,4-dideoxy-1,4-imino-L-gulitol], in [1], the inhibition at 1000 µg/mL (stock) is 23.5%. The “Sample Appearance” value in [2] is recorded as “In solution”. In addition, the “Percentage inhibition β-D-Glucosidase Almond” value in data set [3] was found to be 47.9%. Besides, in [4], the “Percentage inhibition β-D-Glucuronidase Bovine Liver” value is −2.7%. Moreover, the inhibition at 25 µM was 14 ± 13% in [5]; 18 ± 5% in data set [6]; 16 ± 5% in data set [7]; 7 ± 1% in data set [8]; 6 ± 1% in data set [9]; under 0% in [10]. Besides, the GI50 in data set [5], in [6], in data set [7], in data set [8], in [9] and in data set [10] was over 50 µM in each case. For the same molecule, the results for the “inhibition % β-D-Mannosidase Snail” value in data set [11] (at 100 μM) and in data set [11] (at 1000 μM) were “^cNI ^d(0%)” and “^aNI ^b(0%)”, respectively. Moreover, the “inhibition % α-D-Galactosidase Coffee Beans” value in data set [12] (at 100 μM) is given as “^cNI ^d(1.1%)”; in data set [12] (at 1000 μM), “^aNI ^b(3.7%)”. Also, the “inhibition % β-D-Glucuronidase Bovine Liver” value is “^cNI ^d(0%)” in [13] (at 100 μM) and “^aNI ^b(14.7%)” in [13] (at 1000 μM).

As to `CC1(C)O[C@H]2O[C@H]3[C@@H]([C@H]2O1)N(Cc1cccc(B(O)O)c1)C[C@H]3O` [meta 5, N-(3-Methylphenylboronic acid)-3,6-dideoxy-3,6-imino-1,2-O-isopropylidene-α-D-glucofuranose], in data set [1], the “Percentage inhibition α-D-Glucosidase Yeast” value is recorded as 13.7%. In [1], the inhibition at 1000 µg/mL (stock) worked out at 14.8%. Further, the “Sample Appearance” value in data set [2] is on record as “In solution”. Moreover, the “Percentage inhibition β-D-Glucosidase Almond” value in data set [3] is 7.7%. Also, the “Percentage inhibition β-D-Glucuronidase Bovine Liver” value in [4] is given as −0.9%. Besides, the inhibition at 25 µM is 7 ± 4% in [5]; 32 ± 7% in data set [6]; 16 ± 1% in data set [7]; 10 ± 2% in data set [8]; 8 ± 8% in data set [9]; under 0% in data set [10]. Moreover, the GI50 in [5], in [6], in [7], in data set [8], in data set [9] and in data set [10] was over 50 µM each time. Moreover, the “inhibition % β-D-Mannosidase Snail” value in data set [11] (at 100 μM) is on record as “^cNI ^d(2.3%)”. Further, the “inhibition % α-D-Galactosidase Coffee Beans” value in data set [12] (at 100 μM) is given as “^cNI ^d(1.5%)”. Further, the “inhibition % β-D-Glucuronidase Bovine Liver” value in [13] (at 100 μM) was “^cNI ^d(2.9%)”.

As to `CC1(C)O[C@H]2O[C@H]3[C@@H]([C@H]2O1)N(Cc1cccc(O)c1)C[C@H]3O` [meta 6], in data set [1], the inhibition at 1000 µg/mL (stock) turned out to be 6.6%. In addition, the “Sample Appearance” value in data set [2] is “In solution”. Further, the “Percentage inhibition β-D-Glucosidase Almond” value in data set [3] is 0.7%. In addition, the “Percentage inhibition β-D-Glucuronidase Bovine Liver” value in data set [4] came to 3.6%. The inhibition at 25 µM was found to be 4 ± 2% in [5]; 23 ± 6% in data set [6]; 12 ± 4% in data set [7]; 6 ± 3% in data set [8]; 4 ± 9% in [9]; 4 ± 3% in data set [10]. Besides, the GI50 in data set [5], in [6], in data set [7], in data set [8], in data set [9] and in data set [10] was over 50 µM in each case. For the same molecule, the “inhibition % β-D-Mannosidase Snail” value in [11] (at 100 μM) was “^cNI ^d(0.6%)”. Also, in [12] (at 100 μM), the “inhibition % α-D-Galactosidase Coffee Beans” value was “^cNI ^d(0%)”. Besides, the “inhibition % β-D-Glucuronidase Bovine Liver” value in data set [13] (at 100 μM) is reported as “^cNI ^d(1.6%)”.

With `CC1(C)O[C@H]2O[C@H]3[C@@H]([C@H]2O1)N(Cc1ccccc1B1OC(C)(C)C(C)(C)O1)C[C@H]3O` [ortho 2, N-(2-Methylphenylboronic acid pinacol ester)-3,6-dideoxy-3,6-imino-1,2-O-isopropylidene-α-D-gulofuranose], the inhibition at 1000 µg/mL (stock) in [1] was -2%. Further, the “Sample Appearance” value in data set [2] is given as “In solution”. Further, the “Percentage inhibition β-D-Glucosidase Almond” value in [3] was found to be 73.3%. In [4], the “Percentage inhibition β-D-Glucuronidase Bovine Liver” value is on record as −1.8%. Moreover, the inhibition at 25 µM in data set [5] came out at 9 ± 4%; in data set [6], 7 ± 2%; in data set [7], 9 ± 7%; in data set [8], 11 ± 4%; in data set [9], 10 ± 5%; in data set [10], 7%. For the same molecule, the GI50 in data set [5], in data set [6], in data set [7], in data set [8], in [9] and in [10] was over 50 µM each time. For the same molecule, the “inhibition % β-D-Mannosidase Snail” value in data set [11] (at 100 μM) was “^cNI ^d(0%)”; in data set [11] (at 1000 μM), “^aNI ^b(7.8%)”. Besides, the “inhibition % α-D-Galactosidase Coffee Beans” value was “^cNI ^d(0%)” in data set [12] (at 100 μM) and “^aNI ^b(2.9%)” in [12] (at 1000 μM). The “inhibition % β-D-Glucuronidase Bovine Liver” value is “^cNI ^d(2.2%)” in data set [13] (at 100 μM) and “^aNI ^b(8.4%)” in data set [13] (at 1000 μM).
